For five molecules, E1/2 results are on record in patent publication US20070170056A1, “Microscale electrochemical cell and methods incorporating the cell” (priority 2006, published 2007).

SMILES strings stand for the structures.

The format of this data set is physicochemical. Conditions: vs Pt reference electrode; mobile phase 50 mM LiClO4 in 50:50 water/ACN; porous graphitic working electrode. The method, then:
A standard phenol mixture (100 μM) was dissolved in (50:50) water/ACN to form a sample solution. Mobile phase A consisted of 50 mM LiClO4 in water, while mobile phase B consisted of 50 mM LiClO4 in ACN; a 50:50 mix was used. The sample solution was introduced into an Eksigent ExpressLC system through a micro-injector (40 nL) and separated on an HPLC column (Eksigent Technologies, 300 μm i.d., 15 cm; 3 μm C18 particles). The eluent from the column was run sequentially through a low-dispersion UV detector (Eksigent Technologies) and then through an electrochemical detection system according to an embodiment of the present invention.
The electrochemical detection system had two independent cells in series, connected by a fused silica capillary.
On to `Oc1ccc(Cl)cc1Cl` [2,4-dichlorophenol], for which the E1/2 came to 305 mV.

In turn, `Oc1ccccc1Cl` [2-chlorophenol] had an E1/2 of 139 mV. In the case of `Cc1cc(O)ccc1Cl` [4-chloro-3-methylphenol] it was 314 mV. `Cc1ccc(O)c(C)c1` [2,4-dimethylphenol] displayed an E1/2 of 304 mV. In the case of `Oc1ccccc1` [phenol] it was 336 mV.
